Publication PMC3006138, “Fexinidazole – A New Oral Nitroimidazole Drug Candidate Entering Clinical Development for the Treatment of Sleeping Sickness” (PLoS Neglected Tropical Diseases, 2010)
Values after ≈ are worked out from the molar mass of the structure shown. Like-named read-outs stand apart in the source and are kept apart here.

What was measured:
in vivo = conditions: both sexes, beagle, dog, po
Procedure: In the dog repeated-dose toxicokinetic study, fexinidazole was given orally by gavage once a day for 28 days to five (control and high dose) or three (low and mid dose) beagle dogs/sex/dose at the doses of 0 (control group), 50, 200, or 800 mg/kg/day. The control group received the vehicle alone (same as above). Systemic exposure to fexinidazole and of its sulfoxide and sulfone metabolites was evaluated on days 1, 14 and 28 in the same animals used for the toxicological study. Samples were taken at predose, and 30 min, 1, 2, 4, 8 and 24 h after dosing on days 1, 14, and 28, and in addition at 48 and 72 h after treatment on day 28.

T. b. brucei GVR35 = experiment: Chronic (stage 2) infection mouse model; type: in vivo
Procedure: Female NMRI mice were infected via intraperitoneal injection with bloodstream forms of T. b. rhodesiense STIB900 or T. b. gambiense 130R and treated with test drugs daily for 4 consecutive days, starting on day 3 or 7 after infection, respectively, or with bloodstream forms of T. b brucei GVR35 and treated daily from day 21 after infection for 5 days. Parasitemia was evaluated by tail blood examination and surviving, aparasitaemic mice at 60, 90, or 180 days, respectively, were considered cured.

[1] = Hepatocyte intrinsic clearance and metabolite profile; type: in vitro ADME, cynomolgus monkey; conditions: male, cynomolgus monkey, cryopreserved hepatocytes, 1 µM
Procedure: (§1) Fexinidazole was incubated with cryopreserved hepatocytes from male CD-1 mice, male Sprague Dawley rats, male beagle dogs, male cynomolgus monkeys, and from pooled white or African-American human donor samples (purchased commercially), at concentrations of 1 µM and 10 µM. […] The incubated samples were analyzed by LC-MS after extraction into acetonitrile.
(§2) A quality control analysis of fexinidazole was performed via 1H-NMR in DMSO and LC- […]
(§3) provided by the Swiss Tropical Institute (Basel, Switzerland).
(§4) Reagents and solvents were of analytical grade and obtained from Sigma-Aldrich (St. Louis, […]
(§5) Cryopreserved hepatocytes from the male CD1 mouse, lot CSI; male Sprague Dawley rat, lot LPL; male beagle dog, lot BWX; male cynomolgus monkey, lot EHH; and pooled human samples, lot MJI, were purchased from In Vitro Technologies Inc (Baltimore, Maryland, […]
(§6) 5.4. In vitro Incubations
(§7) On the day of the experiment a 10 mM stock solution of fexinidazole in DMSO was prepared and, within 3 hours, aliquots of this freshly prepared solution, after suitable dilution, were added to the incubation matrix, to reach fexinidazole final concentrations of 1 and 10 µM. The final percentage of DMSO was 0.01% in the incubation samples for the […]
(§8) On the day of experiment, the cryopreserved hepatocytes were thawed following the detailed instructions provided by the supplier.
(§9) The number of viable cells was determined using a Trypan Blue exclusion method.
(§10) 5.4.1. Intrinsic Clearance Study […]
(§11) µM with mouse, rat, dog, monkey and human hepatocytes (300000 cells/mL for the mouse and 1 million cells/mL for the other species) in a final incubation volume of 0.75 mL […]
(§12) Incubations were performed in duplicate in a 48-well plate under shaking. Sampling was performed using an automatic liquid handling system (Multiprobe II EX, Packard). At 0, 1, 5, 10, 15, 20, 30, 60 and 120 minutes, 50 µL aliquots of the incubates were taken, then 80 µL of ice-cold acetonitrile and 20 µL of 1 µM warfarin in acetonitrile (internal standard) were added, and samples centrifuged at 2000 rpm for 20 min. The supernatant was analyzed by LC-MS/MS. […]
(§13) the medium alone at t = 0 and 120 minutes.
(§14) For the determination of phase I and phase II activity of hepatocytes, 7-ethoxycoumarin (7-EC) 1 µM, and 7-hydroxycoumarin (7-HC) 30 µM were used as positive controls and incubated under the same conditions as fexinidazole. Aliquots of incubates were taken at 0, 10, 20, 30, 60 and 120 minutes and processed as fexinidazole samples.
(§15) 5.4.2. Metabolite Profile Study
(§16) For metabolite profiling, fexinidazole was incubated at a concentration of 10 µM with mouse, rat, dog, monkey and human hepatocytes (300000 cells/mL for the mouse and 1 million cells/mL for the other species) in a final incubation volume of 2 mL Leibovitz L-15 […]
(§17) Aliquots of the incubation samples were taken at t = 0, 30 and 120 minutes; the metabolism was stopped by the addition of an equal volume of cold acetonitrile and the samples centrifuged at 1500 rpm for 20 min. The supernatant was stored at -20°C until analysis. Control incubations were performed with the compound in the medium alone […]
(§18) 5.5. Analysis of Samples for Intrinsic Clearance Determination
(§19) The analysis of the samples for intrinsic clearance determination was performed by an LC-MS/MS method, using the following conditions:
(§20) HPLC Equipment and Conditions
(§21) HPLC system Agilent 1100 binary pump (Agilent, Palo Alto, USA)
(§22) Autosampler CTC Pal (Alfatech, San Jose, USA)
(§23) Analytical column Guard Column SB-C8 4.6 x 12.5 mm, 5 µm (Zorbax)
(§24) Column temperature ambient
(§25) Mobile phase A 10 mM ammonium formate pH 4.0: acetonitrile (95:5, v:v)
(§26) Mobile phase B 10 mM ammonium formate pH 4.0: acetonitrile (5:95, v:v) […]
(§27) Gradient conditions Step Total time (min) flow (µL/min) %A % B […]
(§28) MS Equipment and Conditions
(§29) Mass spectrometer API 4000 Triple Quadrupole (MDS-Sciex, Toronto, […]
(§30) Source Turbo Ion Spray (TIS)
(§31) Ion mode Positive for fexinidazole and 7-EC.
(§32) Negative for 7-HC, 7-HC sulphate and 7-HC glucuronide.

[2] = as above; type: in vitro ADME, human; conditions: human, cryopreserved pooled hepatocytes, 1 µM
Procedure: as §1, §2, §3, §4, §5, §6, §7, §8, §9, §10, §11, §12, §13, §14, §15, §16, §17, §18, §19, §20, §21, §22, §23, §24, §25, §26, §27, §28, §29, §30, §31, §32

[3] = as above; type: in vitro ADME, dog; conditions: male, beagle, dog, cryopreserved hepatocytes, 1 µM
Procedure: as §1, §2, §3, §4, §5, §6, §7, §8, §9, §10, §11, §12, §13, §14, §15, §16, §17, §18, §19, §20, §21, §22, §23, §24, §25, §26, §27, §28, §29, §30, §31, §32

African trypanosomes = experiment: In vitro activity against African trypanosomes (summary); type: cell-based; conditions: Trypanosoma brucei, laboratory strains and recent clinical isolates
Procedure: Parasites were cultured with or without the test article at a concentration of 3×10^4/mL in Minimal Essential Medium, according to Baltz et al., with the following modifications: 0.2 mM 2-mercaptoethanol, 1 mM Na-pyruvate, 0.5 mM hypoxanthine and 15% heat inactivated horse serum at 37°C in 5% CO2 in 96-well microtitre plates for 72 h. 10 µL of Alamar Blue was added for the final 3 h to determine viability. The assay was assessed by reading the fluorescence in each well at an excitation wavelength of 536 nm and at an emission wavelength of 588 nm. The IC50 values were calculated from the sigmoidal inhibition curves. For cytotoxicity, 4×10^4/mL L-6 rat skeletal myoblast cells were used, and incubations and assessments carried out as above.

[4] = Respiratory safety (plethysmography); conditions: single oral dose

## CSc1ccc(OCc2ncc([N+](=O)[O-])n2C)cc1 [Fexinidazole, 1-methyl-2-((p-(methylthio)phenoxy)methyl)-5-nitroimidazole]
In vivo
  NOAEL at 28 days: 200 mg/kg/day
T. b. brucei GVR35; 50 mg/kg×5 days po
  Cured/infected: 0/8
  Mean relapse time: 41.3 days
T. b. brucei GVR35; 100 mg/kg twice per day for 5 days po, groups of 5 mice, two independent experiments
  cure: 100%
T. b. brucei GVR35; 100 mg/kg×5 days po
  Cured/infected: 2/8
  Mean relapse time: >82.1 days
T. b. brucei GVR35; 200 mg/kg×5 days po
  Cured/infected: 7/8
  Mean relapse time: >163.8 days
[1]; read-out: CLint in vitro
  CLint scaled at 1 µM: 6500 mL/min/kg
[1]; cynomolgus
  half-life at 1 µM: 0.6 min
[1]; cynomolgus, read-out: CLint in vitro
  hepatocyte CLint at 1 µM: 1190 µL/min/1e6 cells
[2]
  half-life at 1 µM: 13 min
[2]; read-out: CLint in vitro
  CLint scaled at 1 µM: 124 mL/min/kg
  hepatocyte CLint at 1 µM: 51.9 µL/min/1e6 cells
[3]
  half-life at 1 µM: 1.1 min
[3]; read-out: CLint in vitro
  CLint scaled at 1 µM: > 3000 mL/min/kg
  hepatocyte CLint at 1 µM: 656 µL/min/1e6 cells
African trypanosomes
  IC50: 0.1 to 0.8 µg/mL (≈ 0.358 to 2.86 µM)
[4]
  NOEL on respiratory parameters: 1000 mg/kg
